Measurements as given in PubChem BioAssay (NCI).
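Five concentrations, 48 hours, 96-well plates. The concentration for 50% growth inhibition is given as GI50. TGI: concentration producing complete growth inhibition.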

How the values were obtained:
Test in all cases: NCI-60 cell line screen, 48 h
MOLT-4 leukemia = system: MOLT-4 leukemia
SK-MEL-5 melanoma = system: SK-MEL-5 melanoma
NCI-H226 lung = system: NCI-H226 lung
LOX IMVI melanoma = system: LOX IMVI melanoma
SF-539 CNS = system: SF-539 CNS
TK-10 renal = system: TK-10 renal
COLO 205 colon = system: COLO 205 colon
DU-145 prostate = system: DU-145 prostate
IGROV1 ovarian = system: IGROV1 ovarian
SN12C renal = system: SN12C renal
M14 melanoma = system: M14 melanoma
SK-MEL-28 melanoma = system: SK-MEL-28 melanoma
OVCAR-3 ovarian = system: OVCAR-3 ovarian
SR leukemia = system: SR leukemia
U251 CNS = system: U251 CNS
MCF7 breast = system: MCF7 breast
HCT-15 colon = system: HCT-15 colon
T-47D breast = system: T-47D breast
PC-3 prostate = system: PC-3 prostate
SNB-75 CNS = system: SNB-75 CNS
KM12 colon = system: KM12 colon
CAKI-1 renal = system: CAKI-1 renal
CCRF-CEM leukemia = system: CCRF-CEM leukemia
MDA-MB-468 breast = system: MDA-MB-468 breast
MALME-3M melanoma = system: MALME-3M melanoma
RPMI-8226 leukemia = system: RPMI-8226 leukemia
SW-620 colon = system: SW-620 colon
HCC-2998 colon = system: HCC-2998 colon
K-562 leukemia = system: K-562 leukemia
HS 578T breast = system: HS 578T breast
RXF 393 renal = system: RXF 393 renal
OVCAR-8 ovarian = system: OVCAR-8 ovarian
OVCAR-5 ovarian = system: OVCAR-5 ovarian
HCT-116 colon = system: HCT-116 colon
UACC-257 melanoma = system: UACC-257 melanoma
786-0 renal = system: 786-0 renal
NCI-H460 lung = system: NCI-H460 lung
OVCAR-4 ovarian = system: OVCAR-4 ovarian
SF-295 CNS = system: SF-295 CNS
EKVX NSCLC = system: EKVX NSCLC
SNB-19 CNS = system: SNB-19 CNS
UACC-62 melanoma = system: UACC-62 melanoma
MDA-MB-435 = system: MDA-MB-435
UO-31 renal = system: UO-31 renal
HL-60(TB) leukemia = system: HL-60(TB) leukemia
HOP-92 NSCLC = system: HOP-92 NSCLC
SK-OV-3 ovarian = system: SK-OV-3 ovarian
SK-MEL-2 melanoma = system: SK-MEL-2 melanoma
A498 renal = system: A498 renal
NCI-H522 lung = system: NCI-H522 lung
HT29 colon = system: HT29 colon
HOP-62 NSCLC = system: HOP-62 NSCLC
NCI-H23 lung = system: NCI-H23 lung
MDA-MB-231 breast = system: MDA-MB-231 breast
BT-549 breast = system: BT-549 breast
ACHN renal = system: ACHN renal
A549 NSCLC = system: A549 NSCLC

How did the GI50 (MOLT-4 leukemia) turn out when O=c1oc2ccc(-c3ccc(F)cc3F)cc2c(=O)n1-c1ccc(F)cc1 was run?
Its GI50 is 2.08 µM.

And the TGI (MOLT-4 leukemia)?
Its TGI is 8.27 µM.

And the GI50 (SK-MEL-5 melanoma)?
Its GI50 is 0.799 µM.

What about the TGI (SK-MEL-5 melanoma) of the same compound?
Its TGI is 2.3 µM.

And the GI50 (NCI-H226 lung)?
The GI50 was 1.45 µM.

What about the TGI (NCI-H226 lung) of the same compound?
The TGI was 6.5 µM.

What about the GI50 (LOX IMVI melanoma) of the same compound?
The GI50 was 3.21 µM.

And the TGI (LOX IMVI melanoma)?
Its TGI is 11.2 µM.

And the GI50 (SF-539 CNS)?
The GI50 was 2.88 µM.

What about the TGI (SF-539 CNS) of the same compound?
Its TGI is 12.1 µM.

And the GI50 (TK-10 renal)?
The GI50 was 2.78 µM.

What about the TGI (TK-10 renal) of the same compound?
Its TGI is greater than 100 µM.

What about the GI50 (COLO 205 colon) of the same compound?
The GI50 was 16.3 µM.

And the TGI (COLO 205 colon)?
Its TGI is 34.8 µM.

What about the GI50 (DU-145 prostate) of the same compound?
Its GI50 is 3.3 µM.

What about the TGI (DU-145 prostate) of the same compound?
The TGI was greater than 100 µM.

What about the GI50 (IGROV1 ovarian) of the same compound?
The GI50 was 3.02 µM.

What about the TGI (IGROV1 ovarian) of the same compound?
Its TGI is greater than 100 µM.

And the GI50 (SN12C renal)?
The GI50 was 2.12 µM.

And the TGI (SN12C renal)?
The TGI was 8.04 µM.

And the GI50 (M14 melanoma)?
The GI50 was 3.49 µM.

What about the TGI (M14 melanoma) of the same compound?
Its TGI is greater than 100 µM.

What about the GI50 (SK-MEL-28 melanoma) of the same compound?
The GI50 was 3.23 µM.

What about the TGI (SK-MEL-28 melanoma) of the same compound?
Its TGI is greater than 100 µM.

What about the GI50 (OVCAR-3 ovarian) of the same compound?
Its GI50 is 2.49 µM.

And the TGI (OVCAR-3 ovarian)?
Its TGI is 14 µM.

What about the GI50 (SR leukemia) of the same compound?
Its GI50 is 2.45 µM.

What about the TGI (SR leukemia) of the same compound?
Its TGI is greater than 100 µM.

What about the GI50 (U251 CNS) of the same compound?
The GI50 was 2.82 µM.

And the TGI (U251 CNS)?
The TGI was 17.3 µM.

And the GI50 (MCF7 breast)?
The GI50 was 2.51 µM.

And the TGI (MCF7 breast)?
The TGI was greater than 100 µM.

What about the GI50 (HCT-15 colon) of the same compound?
Its GI50 is 2.91 µM.

What about the TGI (HCT-15 colon) of the same compound?
Its TGI is greater than 100 µM.

What about the GI50 (T-47D breast) of the same compound?
The GI50 was 0.502 µM.

And the TGI (T-47D breast)?
Its TGI is 4.32 µM.

What about the GI50 (PC-3 prostate) of the same compound?
The GI50 was 2.8 µM.

And the TGI (PC-3 prostate)?
Its TGI is 11.7 µM.

And the GI50 (SNB-75 CNS)?
Its GI50 is 1.38 µM.

And the TGI (SNB-75 CNS)?
Its TGI is 5.53 µM.

What about the GI50 (KM12 colon) of the same compound?
The GI50 was 3.07 µM.

And the TGI (KM12 colon)?
Its TGI is 10.7 µM.

And the GI50 (CAKI-1 renal)?
The GI50 was 1.48 µM.

What about the TGI (CAKI-1 renal) of the same compound?
The TGI was 5.1 µM.

What about the GI50 (CCRF-CEM leukemia) of the same compound?
Its GI50 is 3.18 µM.

And the TGI (CCRF-CEM leukemia)?
Its TGI is 9.84 µM.

What about the GI50 (MDA-MB-468 breast) of the same compound?
The GI50 was 1.87 µM.

And the TGI (MDA-MB-468 breast)?
Its TGI is 5.67 µM.

What about the GI50 (MALME-3M melanoma) of the same compound?
Its GI50 is 1.62 µM.

And the TGI (MALME-3M melanoma)?
The TGI was 5.34 µM.

And the GI50 (RPMI-8226 leukemia)?
The GI50 was 1.33 µM.

What about the TGI (RPMI-8226 leukemia) of the same compound?
The TGI was 7.13 µM.

What about the GI50 (SW-620 colon) of the same compound?
The GI50 was 3.23 µM.

What about the TGI (SW-620 colon) of the same compound?
Its TGI is greater than 100 µM.

And the GI50 (HCC-2998 colon)?
Its GI50 is 3.31 µM.

And the TGI (HCC-2998 colon)?
The TGI was 13.9 µM.

And the GI50 (K-562 leukemia)?
The GI50 was 1.58 µM.

What about the TGI (K-562 leukemia) of the same compound?
The TGI was greater than 100 µM.

What about the GI50 (HS 578T breast) of the same compound?
The GI50 was 2.27 µM.

And the TGI (HS 578T breast)?
Its TGI is 7.51 µM.

And the GI50 (RXF 393 renal)?
Its GI50 is 1.55 µM.

What about the TGI (RXF 393 renal) of the same compound?
Its TGI is 5.63 µM.

What about the GI50 (OVCAR-8 ovarian) of the same compound?
The GI50 was 3.52 µM.

What about the TGI (OVCAR-8 ovarian) of the same compound?
Its TGI is greater than 100 µM.

And the GI50 (OVCAR-5 ovarian)?
The GI50 was 3.2 µM.

And the TGI (OVCAR-5 ovarian)?
Its TGI is greater than 100 µM.

And the GI50 (HCT-116 colon)?
Its GI50 is 3.12 µM.

And the TGI (HCT-116 colon)?
Its TGI is 18.8 µM.

And the GI50 (UACC-257 melanoma)?
The GI50 was 1.64 µM.

And the TGI (UACC-257 melanoma)?
Its TGI is 6.78 µM.

And the GI50 (786-0 renal)?
Its GI50 is 5.51 µM.

What about the TGI (786-0 renal) of the same compound?
Its TGI is 53.7 µM.

What about the GI50 (NCI-H460 lung) of the same compound?
The GI50 was 2.3 µM.

And the TGI (NCI-H460 lung)?
The TGI was 11.9 µM.

What about the GI50 (OVCAR-4 ovarian) of the same compound?
The GI50 was 2.08 µM.

And the TGI (OVCAR-4 ovarian)?
The TGI was 54.1 µM.

And the GI50 (SF-295 CNS)?
The GI50 was 3.46 µM.

And the TGI (SF-295 CNS)?
Its TGI is 12.8 µM.

And the GI50 (EKVX NSCLC)?
The GI50 was 2.8 µM.

What about the TGI (EKVX NSCLC) of the same compound?
The TGI was greater than 100 µM.

And the GI50 (SNB-19 CNS)?
The GI50 was 3.58 µM.

What about the TGI (SNB-19 CNS) of the same compound?
The TGI was greater than 100 µM.

What about the GI50 (UACC-62 melanoma) of the same compound?
Its GI50 is 1.37 µM.

What about the TGI (UACC-62 melanoma) of the same compound?
The TGI was 4.65 µM.

What about the GI50 (MDA-MB-435) of the same compound?
Its GI50 is 1.73 µM.

What about the TGI (MDA-MB-435) of the same compound?
The TGI was 7.09 µM.

What about the GI50 (UO-31 renal) of the same compound?
The GI50 was 2.3 µM.

And the TGI (UO-31 renal)?
Its TGI is 9.44 µM.

What about the GI50 (HL-60(TB) leukemia) of the same compound?
The GI50 was 2.01 µM.

And the TGI (HL-60(TB) leukemia)?
Its TGI is 6.13 µM.

And the GI50 (HOP-92 NSCLC)?
The GI50 was 0.95 µM.

And the TGI (HOP-92 NSCLC)?
Its TGI is 4.48 µM.

What about the GI50 (SK-OV-3 ovarian) of the same compound?
The GI50 was 2.15 µM.

And the TGI (SK-OV-3 ovarian)?
The TGI was 6.37 µM.

And the GI50 (SK-MEL-2 melanoma)?
Its GI50 is 1.79 µM.

What about the TGI (SK-MEL-2 melanoma) of the same compound?
The TGI was 4.6 µM.

And the GI50 (A498 renal)?
Its GI50 is 1.91 µM.

What about the TGI (A498 renal) of the same compound?
Its TGI is 6.17 µM.

What about the GI50 (NCI-H522 lung) of the same compound?
Its GI50 is 1.23 µM.

And the TGI (NCI-H522 lung)?
The TGI was 6.15 µM.

And the GI50 (HT29 colon)?
The GI50 was 10.3 µM.

And the TGI (HT29 colon)?
The TGI was 75.8 µM.

And the GI50 (HOP-62 NSCLC)?
The GI50 was 2.39 µM.

What about the TGI (HOP-62 NSCLC) of the same compound?
The TGI was 6.93 µM.

What about the GI50 (NCI-H23 lung) of the same compound?
The GI50 was 2.08 µM.

And the TGI (NCI-H23 lung)?
The TGI was 6.78 µM.

And the GI50 (MDA-MB-231 breast)?
The GI50 was 1.76 µM.

And the TGI (MDA-MB-231 breast)?
Its TGI is 4.41 µM.

And the GI50 (BT-549 breast)?
The GI50 was 1.92 µM.

And the TGI (BT-549 breast)?
Its TGI is 5.89 µM.

What about the GI50 (ACHN renal) of the same compound?
The GI50 was 3.88 µM.

What about the TGI (ACHN renal) of the same compound?
Its TGI is greater than 100 µM.

And the GI50 (A549 NSCLC)?
Its GI50 is 3.25 µM.

What about the TGI (A549 NSCLC) of the same compound?
Its TGI is greater than 100 µM.
